Columns and labels:
Solubility = format: physicochemical; conditions: dry ethanol, methanol, chloroform, dimethylformamide, dimethylsulfoxide
MDA-MB-231 cells = test: MTT assay, synergistic effect with Paclitaxel (Example 12); format: cell-based, human; conditions: 20 μM, 24 or 48 h
Method: Synergistic effects of (S)2-(4′-methyl-3′-nitrobenzoylamino)-3-phenylpropionic acid and Paclitaxel was tested by MTT assay.
1) The MDA-MB-231 cells in logarithmic growth phase were seeded in the 96-well plate at a density of 4×10^3/0.2 ml. After culturing for 12 h, 10 μl Paclitaxel solution was added, with the final concentration of 0, 0.001, 0.01, 0.1, 1, 10, 50, 100, 200 μM, then 10 μL (S)2-(4′-methyl-3′-nitrobenzoylamino)-3-phenylpropionic acid PBS solution was add to half of the wells for each group with the final concentration of 20 μM, followed by continuous culturing for 24 or 48 h.
2) 5 mg/mL MTT solution was prepared with sterilized PBS, filtered with 0.22 μm film, and diluted with medium to 1 mg/mL. After discarding the medium in the 96-well plate, 100 μL 1 mg/mL MTT working solution was added, followed by continuous culturing for 5 h.
3) MTT working solution was discarded, and 150 μL DMSO was added per well (note: to away from light). The plate was shaken on a horizontal shaker at 170 rpm for 10 min, and then the absorbance at 490 nm was detected by microplate reader.

[1] = Mice acute toxicity assay, intravenous administration (Example 9); conditions: both sexes, Kunming, mouse, in vivo, Bliss algorithm
Method: The median lethal dose of (S)2-(4′-methyl-3′-nitrobenzoylamino)-3-phenylpropionic acid via intravenous administration was tested by mice acute toxicity assay.
1) Mice grouping, Kunming mice of clean grade, 10 weeks old, 30˜40 g body weight, 10 mice for each group, half male and half female.
2) 10 groups in total, concentration distance between groups was 0.88. Sterilized water was added to the mother liquid II for dosage form administrated by intravenous injection to formulate into the required concentration and 0.2 ml was intravenously injected for each mouse, following 14 days observation. The dosage of administration for each group and the death numbers were recorded as follows: […]

Kunming mice = test: Acute toxicity assay in mice, oral administration (Example 10); conditions: Kunming, mouse, in vivo, 14 days
Method: (§1) The medium lethal dose of (S)2-(4′-methyl-3′-nitrobenzoylamino)-3-phenylpropionic acid via oral administration was tested by acute toxicity assay in mice.
(§2) 1) Mice grouping: Kunming mice of clean grade, 10 weeks old, 30˜40 g body weight, 5 mice for each group, and all of the mice were males or females.
(§3) 2) 3.2 g (S)2-(4′-methyl-3′-nitrobenzoylamino)-3-phenylpropionic acid was added to 8 mL solution of 3% sodium carboxymethylcellulose solution, and the mixture was homogenated for 5 min at 30000 rpm with a homogenizer. Each mouse undergone administration of intragastric infusion with 0.5 ml at a dosage of 5000 mg/kg. […] If the death number was […], the LD50 was regarded as more than 5000 mg/kg; if the death number equals to or was more than 3, the main experiments will be performed. The experiment was repeated for 3 times and the result was recorded as follows: […]

[2] = as above; conditions: both sexes, mouse, in vivo, 5000 mg/kg; oral administration, Kunming mice
Method: as §1, §2, §3

4T1-luciferase cells = test: In situ model of breast cancer in nude mouse, lung metastasis by in vivo imaging (Example 7); parameters: species or system nude mice; conditions: 20 mg/kg and 1 mg/kg tail vein, twice a day, 21 days; P<0.01
Method: 4) An in situ breast cancer model is constructed by in situ inoculating nude mice with 4T1 cells which are stably transfected with Luciferase, and the number of metastatic tumors on the lung is detected by in vivo imaging system. Such a model mimics the occurrence and metastasis of breast cancer.
The ability of (S)2-(4′-methyl-3′-nitrobenzoylamino)-3-phenylpropionic acid for inhibiting tumor metastasis in vivo was tested by in situ model of breast cancer in nude mouse.
1) Mice grouping: Nude female mice of SPF grade, 5 weeks old, 18˜22 g, 8 mice for each group;
2) The mother liquid of (S)2-(4′-methyl-3′-nitrobenzoylamino)-3-phenylpropionic acid (TCI04) for the dosage form administrated by intravenous injection was diluted to 2 mg/mL, 0.1 mg/mL by adding sterilized water. The dosage for administration in mice was as follows, high dosage of 20 mg/kg; low dosage of 1 mg/kg. […]
3) 4T1-luciferase cells in logarithmic growth phase were digested with 0.05% typsine for 1 min, after centrifugation at 1000 rpm for 5 min, the supernatant was discarded and the cells were resuspended and counted. […]
5) After the completion of the administration, the mice were detected by in vivo imaging system for the condition of tumor metastasis and immediately sacrificed; the lungs alone were detected by the in vivo imaging system for the light intensity to determine the number of tumor metastasis.

SMILES: Cc1ccc(C(=O)N[C@@H](Cc2ccccc2)C(=O)O)cc1[N+](=O)[O-] [(S)2-(4′-methyl-3′-nitrobenzoylamino)-3-phenylpropionic acid]
- solubility in organic solvents (Solubility): highly soluble
- synergistic effect with Paclitaxel (MDA-MB-231 cells): strong synergistic effect
- LD50 at 14 days ([1]; read-out: LD50): 269 mg/kg
- LD50 at 14 days ([1]; read-out: LD50 95% confidence limits): 249 to 291 mg/kg
- Death number, Female mice, The first test (Kunming mice; female): 2
- Death number, Female mice, The second test (Kunming mice; female): 2
- Death number, Female mice, The third test (Kunming mice; female): 1
- Death number, Male mice, The first test (Kunming mice; male): 2
- Death number, Male mice, The second test (Kunming mice; male): 1
- Death number, Male mice, The third test (Kunming mice; male): 1
- LD50 at 14 days [2]: > 5000 mg/kg
- light intensity of the whole lung vs negative control (4T1-luciferase cells): significantly weaker than the negative control

From patent publication US10512627B2, “Anti-tumor compound and the medical use thereof” (Tianjin Medical University Cancer Institute and Hospital, priority 2014, dated 2019)
